Results reported in US4716230A, “Certain bis(di-2 or 4-pyridyl-phosphino) alkanes #10 having anti-tumor properties” (Smithkline Beckman Corporation, priority 1986, dated 1987).
Values joined by “and” are separate entries in the source; they are usually repeats but may differ in a detail not shown here. Equal entries are not always repeated.

What was measured:
P388 leukemia = test: in vivo ip P388 lymphocytic leukemia mouse model (increase in lifespan); set-up: species or system mouse (B6D2F1); conditions: mice bearing ip P388 leukemia; ip Days 1-5; figures separated by slashes are from separate experiments; active if ≥25 percent ILS
From the text: P388 lymphocytic leukemia is currently the most widely used animal tumor model for screening for antitumor agents and for detailed evaluation of active compounds. This tumor system is widely accepted as an antitumor agent screening tool because it is sensitive to virtually all of the clinically active antineoplastic agents; quantitative and reproducible; amenable for large-scale screening; and predictive for activity in other animal tumor models.
(§1) 10^6 P388 leukemia cells are inoculated ip in B6D2F1 mice. Twenty-four hours later, if the tumor inoculum proves to be free of bacterial contamination (as determined by 24 hours incubation in thioglycollate broth), animals are randomized into groups of 6 and housed in shoebox cages. The compound to be evaluated is dissolved in a minimal volume of either N,N-dimethylacetamide (DMA) or 95% ethanol (depending upon solubility). An equal volume of saline is added; if the drug comes out of solution an equal volume of polyethoxylated castor oil is added and then saline qs to a concentration such that the desired dose is delivered in 0.5 ml. The final concentration of DMA, ethanol and polyethoxylated castor oil is […]. Dilutions for lower doses are made with saline so there is a decreasing proportion of organic solvents in the vehicle with decreasing dosage. These vehicles provide soluble formulations (or suspensions). Formulations are prepared immediately prior to injection. The compound is administered ip on Days 1 through 5 (i.e. treatment is initiated 24 hrs after tumor inoculation). Each experiment includes three groups of 6 animals as untreated controls and animals treated with a positive control, cisplatin, at two dose levels. Animals are weighed as a group on Days 1, 5 and 9 and average weight change (Δwt.) is used as a reflection of toxicity. Each experiment also includes an inoculum titration--groups of 8 mice inoculated ip with 10^5 to […] P388 leukemia cells. The titration is used to calculate cell kill achieved by treatment with drugs. Animals are monitored daily for mortality and experiments are terminated after 45 days. The endpoint is median survival time (MST) and increase in lifespan (ILS) which is the percentage of increase in MST relative to untreated controls. Untreated controls inoculated ip with 10^6 P388 leukemia cells generally survive for a median of 9 or 11 days. A drug is considered active if it produces ≥25 percent ILS.
^(b) maximum increase in lifespan produced in mice bearing ip P388
leukemia (figures separated by slashes indicate data generated in seperat

[1] = maximally tolerated dose in mice, ip qD × 5 regimen; conditions: mouse, in vivo, B6D2F female mice
Protocol: as §1
^(a) maximally tolerated dose for B6D2F female mice on an ip qD

[2] = Struck et al., J. Med. Chem., 9, 414-416 (1966); cited from earlier work

c1csc(P(CCP(c2cccs2)c2cccs2)c2cccs2)c1 [Compound 3, 1,2-Bis(di-2-thienylphosphino)ethane]
ILS (max) (maximum increase in lifespan) (P388 leukemia): 60% and 55% | MTD [1]: 16 mg/kg

c1ccc(P(CCP(c2ccccn2)c2ccccn2)c2ccccn2)nc1 [Compound 1, 1,2-Bis(di-2-pyridylphosphino)ethane]
ILS (max) (maximum increase in lifespan) (P388 leukemia): 30% and 20% | MTD [1]: 16 mg/kg

c1cc(P(CCP(c2ccncc2)c2ccncc2)c2ccncc2)ccn1 [Compound 2, 1,2-Bis(di-4-pyridylphosphino)ethane]
ILS (max) (maximum increase in lifespan) (P388 leukemia): 35% and 37% | MTD [1]: 32 mg/kg

c1ccc(P(CCP(c2ccccc2)c2ccccc2)c2ccccc2)cc1 [1,2-bis(diphenylphosphino)ethane]
cytotoxic activity [2]: cytotoxic activity

c1coc(P(CCP(c2ccco2)c2ccco2)c2ccco2)c1 [Compound 4, 1,2-Bis(di-2-furylphosphino)ethane]
ILS (max) (maximum increase in lifespan) (P388 leukemia): 60% and 30% and 50% | MTD [1]: 64 mg/kg
